Measurements taken from the supplement of paper PMC10307832.

How the values were obtained:
Assay in all cases: relative viability (nuclei count vs DMSO), 5 days (fraction); higher = more cells survive
FH535 + Palbociclib = compound: CC1=C(C=CC(=C1)[N+](=O)[O-])NS(=O)(=O)C2=C(C=CC(=C2)Cl)Cl [FH535] + CC(=O)c1c(C)c2cnc(Nc3ccc(N4CCNCC4)cn3)nc2n(C2CCCC2)c1=O [Palbociclib] (partner 0.5 µM)
Procedure, shortened: (§1)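 Relative viability was taken as the ratio of nuclei in treated wells to nuclei in vehicle wells. Lung cancer cell lines in 1536-well plates received compounds by pin tool one day after seeding, either one drug alone or a fixed anchor-drug dose plus five library-drug doses (not always all listed) in √10 steps. Nuclei were counted on 4× images after 5 days of treatment, and values are medians of duplicate plates.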

FH535 + Luminespib = compound: CC1=C(C=CC(=C1)[N+](=O)[O-])NS(=O)(=O)C2=C(C=CC(=C2)Cl)Cl [FH535] + CCNC(=O)c1noc(-c2cc(C(C)C)c(O)cc2O)c1-c1ccc(CN2CCOCC2)cc1 [Luminespib] (partner 0.01 µM)
Procedure, shortened: as §1

FH535 + Linsitinib = compound: CC1=C(C=CC(=C1)[N+](=O)[O-])NS(=O)(=O)C2=C(C=CC(=C2)Cl)Cl [FH535] + C[C@]1(O)C[C@@H](c2nc(-c3ccc4ccc(-c5ccccc5)nc4c3)c3c(N)nccn32)C1 [Linsitinib] (partner 1 µM)
Procedure, shortened: as §1

FH535 + AZD7762 = compound: CC1=C(C=CC(=C1)[N+](=O)[O-])NS(=O)(=O)C2=C(C=CC(=C2)Cl)Cl [FH535] + NC(=O)Nc1cc(-c2cccc(F)c2)sc1C(=O)N[C@H]1CCCNC1 [AZD7762] (partner 0.2 µM)
Procedure, shortened: as §1

FH535 + Olaparib = compound: CC1=C(C=CC(=C1)[N+](=O)[O-])NS(=O)(=O)C2=C(C=CC(=C2)Cl)Cl [FH535] + O=C(c1cc(Cc2n[nH]c(=O)c3ccccc23)ccc1F)N1CCN(C(=O)C2CC2)CC1 [Olaparib] (partner 8 µM)
Procedure, shortened: as §1

Cell Line	relative viability (FH535 + Palbociclib; first compound 0.04 µM)	relative viability (FH535 + Palbociclib; first compound 0.1265 µM)	relative viability (FH535 + Palbociclib; first compound 0.4 µM)	relative viability (FH535 + Palbociclib; first compound 1.265 µM)	relative viability (FH535 + Luminespib; first compound 0.04 µM)	relative viability (FH535 + Luminespib; first compound 0.1265 µM)	relative viability (FH535 + Luminespib; first compound 0.4 µM)	relative viability (FH535 + Luminespib; first compound 1.265 µM)	relative viability (FH535 + Linsitinib; first compound 0.04 µM)	relative viability (FH535 + Linsitinib; first compound 0.1265 µM)	relative viability (FH535 + Linsitinib; first compound 0.4 µM)	relative viability (FH535 + Linsitinib; first compound 1.265 µM)	relative viability (FH535 + AZD7762; first compound 0.04 µM)	relative viability (FH535 + AZD7762; first compound 0.1265 µM)	relative viability (FH535 + AZD7762; first compound 0.4 µM)	relative viability (FH535 + AZD7762; first compound 1.265 µM)	relative viability (FH535 + Olaparib; first compound 0.04 µM)	relative viability (FH535 + Olaparib; first compound 0.1265 µM)	relative viability (FH535 + Olaparib; first compound 0.4 µM)	relative viability (FH535 + Olaparib; first compound 1.265 µM)
201T	0.374	0.344	0.332	0.301	1.04	1.03	1.03	0.735	1.05	1.03	0.95	0.964	0.594	0.728	0.62	0.696	0.812	0.856	0.827	0.59
A-427	0.532	0.575	0.546	0.474	0.778	1.19	0.885	0.703	1.13	1.18	1.07	0.981	0.768	0.795	0.768	0.622	0.799	0.774	0.731	0.513
ABC-1	0.715	0.641	0.458	0.583	0.543	0.861	0.627	0.337	0.963	0.836	0.864	0.788	0.706	0.664	0.756	0.549	0.705	0.896	0.94	0.37
BEN	0.477	0.455	0.489	0.431	0.211	0.466	0.285	0.119	0.811	0.976	0.918	0.508	0.6	0.691	0.496	0.507	1.02	1.1	0.831	0.636
CAL-12T	0.344	0.442	0.393	0.25	0.331	0.496	0.727	0.536	0.871	0.796	0.712	0.598	0.594	0.643	0.536	0.397	0.693	0.813	0.612	0.411
COR-L23	0.3	0.327	0.263	0.256	0.73	0.612	0.5	0.435	0.926	0.889	0.722	0.581					0.375	0.35	0.309	0.244
COR-L 105	0.335	0.386	0.43	0.359	0.499	0.952	0.738	0.671	0.903	0.933	0.894	0.91					0.693	0.699	0.747	0.648
ChaGo-K-1	0.893	0.946	0.888	0.531	0.653	0.665	0.55	0.576					0.797	0.927	0.771	0.729	0.384	0.404	0.403	0.286
EKVX	0.422	0.396	0.333	0.292	0.876	0.935	0.859	0.764	1.03	1.05	0.967	0.854	0.77	0.661	0.631	0.559	0.737	0.906	0.903	0.762
EMC-BAC-2	0.546	0.507	0.526	0.512	1.21	1.23	1.12	1.04	0.822	0.873	0.771	0.753	0.828	1.06	1.04	0.985	0.445	0.467	0.46	0.442
EPLC-272H	0.363	0.336	0.337	0.299	0.277	0.357	0.505	0.197	1.04	1.17	1.03	1.05	0.241	0.226	0.259	0.206	0.766	0.92	0.849	0.636
H3255	0.302	0.307	0.346	0.307	0.849	0.892	0.911	0.44	0.87	1.04	0.884	0.727	0.806	0.918	0.853	0.788	0.515	0.527	0.514	0.381
HARA	0.233	0.278	0.277	0.241	0.52	0.869	0.726	0.446	0.774	0.889	1.03	0.584	0.19	0.426	0.305	0.358	0.588	0.873	0.829	0.353
HCC-78	0.487	0.512	0.458	0.425					0.456	0.557	0.558	0.527	0.644	0.888	0.618	0.468	0.695	0.764	0.885	0.673
HCC-366	0.418	0.412	0.37	0.296					0.578	0.852	0.514	0.465	0.244	0.289	0.307	0.247	0.302	0.333	0.373	0.332
IA-LM									0.624	0.525	0.687	0.45					0.768	0.732	0.712	0.503

Cell Line	relative viability (FH535 + Palbociclib; first compound 0.04 µM)	relative viability (FH535 + Palbociclib; first compound 0.1265 µM)	relative viability (FH535 + Palbociclib; first compound 0.4 µM)	relative viability (FH535 + Palbociclib; first compound 1.265 µM)	relative viability (FH535 + Luminespib; first compound 0.04 µM)	relative viability (FH535 + Luminespib; first compound 0.1265 µM)	relative viability (FH535 + Luminespib; first compound 0.4 µM)	relative viability (FH535 + Luminespib; first compound 1.265 µM)	relative viability (FH535 + Linsitinib; first compound 0.04 µM)	relative viability (FH535 + Linsitinib; first compound 0.1265 µM)	relative viability (FH535 + Linsitinib; first compound 0.4 µM)	relative viability (FH535 + Linsitinib; first compound 1.265 µM)	relative viability (FH535 + AZD7762; first compound 0.04 µM)	relative viability (FH535 + AZD7762; first compound 0.1265 µM)	relative viability (FH535 + AZD7762; first compound 0.4 µM)	relative viability (FH535 + AZD7762; first compound 1.265 µM)	relative viability (FH535 + Olaparib; first compound 0.04 µM)	relative viability (FH535 + Olaparib; first compound 0.1265 µM)	relative viability (FH535 + Olaparib; first compound 0.4 µM)	relative viability (FH535 + Olaparib; first compound 1.265 µM)
NCI-H520	0.205	0.248	0.182	0.246	0.159	0.212	0.257	0.24	0.982	0.959	0.915	0.873					0.319	0.277	0.268	0.314
NCI-H596					1.07	1.11	0.85	0.992	1.1	1.13	1.1	1.01	1.04	1.18	0.933	1.05	0.725	0.815	0.733	0.598
NCI-H661	0.387	0.399	0.394	0.32	0.893	0.928	0.841	0.56	0.521	0.537	0.539	0.493					0.729	0.743	0.66	0.515
NCI-H1563					0.491	0.556	0.615	0.52	1.2	1.07	1.25	1.04								
NCI-H1650	0.325	0.323	0.303	0.212	0.175	0.218	0.201	0.189									0.841	0.741	0.698	0.641
NCI-H1703									1.02	0.635	0.561	0.564	0.127	0.136	0.109	0.132	0.429	0.461	0.486	0.392
NCI-H2009	0.243	0.174	0.229	0.215	0.996	1.02	0.938	0.686	1.2	1.09	1.13	1.05					0.666	0.652	0.662	0.552
NCI-H2023	0.383	0.369	0.404	0.331	0.838	0.704	0.681	0.64	0.677	0.631	0.745	0.629					0.48	0.5	0.474	0.368
NCI-H2170	0.397	0.423	0.372	0.312	0.726	0.606	0.661	0.426					0.897	1.06	0.809	0.815	0.624	0.585	0.49	0.389
NCI-H2228	0.734	0.548	0.745	0.788	0.127	0.152	0.156	0.0969	0.88	0.668	0.611	0.385					0.783	0.886	0.709	0.698
NCI-H2342	0.524	0.533	0.567	0.581	0.738	0.713	0.705	0.6					0.491	0.482	0.482	0.354	0.471	0.487	0.434	0.363
SK-LU-1	0.412	0.406	0.373	0.334	0.181	0.21	0.198	0.214	1.06	1.17	1.16	0.678					0.48	0.439	0.456	0.407
SK-MES-1	0.305	0.301	0.312	0.263	0.814	0.907	0.797	0.56	1.04	1.15	1.09	0.948					0.729	0.756	0.6	0.497
SW 900	0.516	0.503	0.507	0.454	0.186	0.163	0.161	0.178					0.42	0.599	0.403	0.542	0.923	0.838	0.804	0.657
SW 1573	0.389	0.428	0.384	0.298	0.237	0.346	0.193	0.638	0.621	0.785	0.855	0.703					0.399	0.497	0.473	0.34
UMC-11	0.346	0.361	0.311	0.325	1.12	1.03	1.02	0.763	1.05	1.1	0.962	0.805					0.288	0.335	0.367	0.343
